In US20260265233A1, “BENZOTHIOPHENE DERIVATIVES AS RXFP1 AGONISTS” (BRISTOL-MYERS SQUIBB COMPANY, priority 2021, published 2026):

Biological target: T1, human RXFP1 (Homo sapiens, UniProt Q9HBX9)
T1 construct: expressed in transfected cells
T1 sequence (Q9HBX9 1-757): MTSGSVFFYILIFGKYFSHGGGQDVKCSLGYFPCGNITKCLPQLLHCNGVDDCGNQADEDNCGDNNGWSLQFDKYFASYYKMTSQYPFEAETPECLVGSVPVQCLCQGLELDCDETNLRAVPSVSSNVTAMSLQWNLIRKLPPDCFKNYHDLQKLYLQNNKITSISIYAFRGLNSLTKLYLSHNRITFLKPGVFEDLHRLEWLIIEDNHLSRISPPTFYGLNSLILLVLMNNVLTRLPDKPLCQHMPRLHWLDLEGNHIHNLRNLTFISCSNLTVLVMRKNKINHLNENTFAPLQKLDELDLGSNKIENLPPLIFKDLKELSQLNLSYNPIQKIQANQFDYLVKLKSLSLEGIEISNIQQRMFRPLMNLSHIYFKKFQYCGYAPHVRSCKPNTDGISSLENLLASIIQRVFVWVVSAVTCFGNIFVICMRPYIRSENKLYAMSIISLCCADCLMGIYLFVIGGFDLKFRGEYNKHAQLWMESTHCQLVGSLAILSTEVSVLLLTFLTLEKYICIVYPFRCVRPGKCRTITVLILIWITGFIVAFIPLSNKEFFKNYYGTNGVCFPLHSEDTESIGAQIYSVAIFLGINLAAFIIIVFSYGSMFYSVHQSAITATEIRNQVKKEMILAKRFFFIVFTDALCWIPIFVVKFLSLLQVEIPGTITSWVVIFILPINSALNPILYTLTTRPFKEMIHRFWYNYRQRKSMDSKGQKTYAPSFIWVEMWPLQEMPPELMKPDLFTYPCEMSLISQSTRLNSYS
Assay: hRXFP1 HEK293 cAMP assay (HTRF)
Format: cell-based
Conditions: HEK293 cells stably expressing human RXFP1; 30 min at rt; intracellular cAMP by HTRF
In short: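 Agonism is measured as cAMP by HTRF, quantified from a standard curve via the 665/590 nm ratio and fitted with a four-parameter logistic equation. Compounds (0.010 nM to 50 μM final, 2% DMSO) were applied for 30 min at rt to human RXFP1-expressing HEK293 cells in assay buffer containing 0.5 mM IBMX.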

EC50 [nM] | Compound
760 | COc1ccc(C2CCCN(CCO)CC2)cc1C(=O)Nc1c(C(=O)Nc2ccc(F)c(C(F)(F)F)c2)sc2cc(C(F)(F)F)ccc12 (single isomer, unassigned) [Example 69, N-(4-fluoro-3-(trifluoromethyl)phenyl)-3-(5-(1-(2-hydroxyethyl)azepan-4-yl)-2-methoxy-benzamido)-6-(trifluoromethyl) benzo[b] thiophene-2-carboxamide]
58.4 | COc1ccc(C2CC2C(=O)O)cc1C(=O)Nc1c(C(=O)Nc2ccc(F)c(C(F)(F)F)c2)sc2cc(C(F)(F)F)ccc12 (single isomer, unassigned) [Example 48, 2-(3-((2-((4-fluoro-3-(trifluoromethyl)phenyl)carbamoyl)-6-(trifluoromethyl)benzo[b]thiophen-3-yl)carbamoyl)-4-methoxyphenyl) cyclopropane-1-carboxylic acid]
1400 | COc1ccc(C(=O)N2CC3(COC3)C2)cc1C(=O)Nc1c(C(=O)Nc2ccc(F)c(C(F)(F)F)c2)sc2cc(C3CC3)ncc12 [Example 238, 6-cyclopropyl-N-(4-fluoro-3-(trifluoromethyl)phenyl)-3-(2-methoxy-5-(2-oxa-6-azaspiro[3.3]heptane-6-carbonyl)benzamido) thieno[3,2-c]pyridine-2-carboxamide]
158 | COc1ccc(C2CCC(C)(O)CC2)cc1C(=O)Nc1c(C(=O)Nc2ccc(F)c(C(F)(F)F)c2)sc2cc(C(F)(F)F)ccc12 (single isomer, unassigned) [Example 37, N-(4-fluoro-3-(trifluoromethyl)phenyl)-3-(5-(4-hydroxy-4-methylcyclohexyl)-2-methoxybenzamido)-6-(trifluoromethyl)benzo[b]thiophene-2-carboxamide]
897 | COc1ccc(N2CCC(NCCO)C2)cc1C(=O)Nc1c(C(=O)Nc2ccc(F)c(C(F)(F)F)c2)sc2cc(C(F)(F)F)ccc12 (centres unmarked) [Example 66, N-(4-fluoro-3-(trifluoromethyl)phenyl)-3-(5-(3-((2-hydroxyethyl)amino)pyrrolidin-1-yl)-2-methoxy-benzamido)-6-(trifluoromethyl) benzo[b] thiophene-2-carboxamide]
613 | COc1ccc(C2CCN(C(=O)CO)C2)cc1C(=O)Nc1c(C(=O)Nc2ccc(F)c(C(F)(F)F)c2)sc2cc(C(F)(F)F)ccc12 (centres unmarked) [Example 152, N-(4-fluoro-3-(trifluoromethyl)phenyl)-3-(5-(1-(2-hydroxyacetyl)pyrrolidin-3-yl)-2-methoxy-benzamido)-6-(trifluoromethyl) benzo[b] thiophene-2-carboxamide]
2050 | COc1ccc(-c2cc(C(=O)O)ccc2F)cc1C(=O)Nc1c(C(=O)Nc2ccc(F)c(C(F)(F)F)c2)sc2ncccc12 [Example 289, 6-fluoro-3′-[(2-{[4-fluoro-3-(trifluoromethyl)phenyl]carbamoyl}thieno[2,3-b]pyridin-3-yl)carbamoyl]-4′-methoxy-[1,1′-biphenyl]-3-carboxylic acid]
1280 | COc1ccc(N2CCOC(CC(C)(C)O)C2)cc1C(=O)Nc1c(C(=O)Nc2ccc(F)c(C(F)(F)F)c2)sc2cc(C(F)(F)F)ccc12 (single isomer, unassigned) [Example 227, N-(4-fluoro-3-(trifluoromethyl)phenyl)-3-(5-(2-(2-hydroxy-2-methylpropyl)morpholino)-2-methoxy-benzamido)-6-(trifluoromethyl) benzo[b] thiophene-2-carboxamide]
48.7 | COc1cc(F)c(C(=O)N2CC(S(C)(=O)=O)C2)cc1C(=O)Nc1c(C(=O)Nc2ccc(F)c(C(F)(F)F)c2)sc2cc(C(F)(F)F)ccc12 [Example 28, 3-(4-fluoro-2-methoxy-5-(3-(methylsulfonyl)azetidine-1-carbonyl)benzamido)-N-(4-fluoro-3-(trifluoromethyl)phenyl)-6-(trifluoromethyl)benzo[b]thiophene-2-carboxamide]
1250 | COc1ncc(C(=O)OC(C)(C)C)cc1C(=O)Nc1c(C(=O)Nc2ccc(F)c(C(F)(F)F)c2)sc2cc(C(F)(F)F)ccc12 [Example 223, tert-butyl 5-((2-((4-fluoro-3-(trifluoromethyl)phenyl)carbamoyl)-6-(trifluoromethyl)benzo[b]thiophen-3-yl)carbamoyl)-6-methoxynicotinate]
3900 | COc1ccc(C(=O)N2CCC(O)CC2)cc1C(=O)Nc1c(C(=O)Nc2ccc(F)c(C(F)(F)F)c2)sc2cc(Cl)ncc12 [Example 241, 6-chloro-N-(4-fluoro-3-(trifluoromethyl)phenyl)-3-(5-(4-hydroxy-piperidine-1-carbonyl)-2-methoxy-benzamido) thieno[3,2-c]pyridine-2-carboxamide]
498 | COc1ccc(C2=NOC3COCC23)cc1C(=O)Nc1c(C(=O)Nc2ccc(F)c(C(F)(F)F)c2)sc2cc(C(F)(F)F)ccc12 (single isomer, unassigned) [Example 255, 3-(5-{3aH,4H,6H,6aH-furo[3,4-d][1,2]oxazol-3-yl}-2-methoxy-benzamido)-N-[4-fluoro-3-(trifluoromethyl)phenyl]-6-(trifluoromethyl)-1-benzothiophene-2-carboxamide]
213 | COc1ccc(C2CCN(C(=O)C3(O)CC3)C2)cc1C(=O)Nc1c(C(=O)Nc2ccc(F)c(C(F)(F)F)c2)sc2cc(C(F)(F)F)ccc12 (centres unmarked) [Example 138, N-(4-fluoro-3-(trifluoromethyl)phenyl)-3-(5-(1-(1-hydroxycyclo-propane-1-carbonyl)pyrrolidin-3-yl)-2-methoxy-benzamido)-6-(trifluoromethyl) benzo[b] thiophene-2-carboxamide]
1460 | COc1ccc(C2CC3(CNC3)C2)cc1C(=O)Nc1c(C(=O)Nc2ccc(F)c(C(F)(F)F)c2)sc2cc(C(F)(F)F)ccc12 [Example 207, N-(4-fluoro-3-(trifluoromethyl)phenyl)-3-(2-methoxy-5-(2-azaspiro[3.3]heptan-6-yl)benzamido)-6-(trifluoromethyl) benzo[b] thiophene-2-carboxamide]
228 | COc1ccc(C2CCN(C(=O)C(C)(C)CO)C2)cc1C(=O)Nc1c(C(=O)Nc2ccc(F)c(C(F)(F)F)c2)sc2cc(C(F)(F)F)ccc12 (single isomer, unassigned) [Example 150, N-(4-fluoro-3-(trifluoromethyl)phenyl)-3-(5-(1-(3-hydroxy-2,2-dimethyl-propanoyl)pyrrolidin-3-yl)-2-methoxy-benzamido)-6-(trifluoromethyl) benzo[b] thiophene-2-carboxamide]
514 | COc1ccc(C2CCN(C(=O)CC(C)(C)O)C2)cc1C(=O)Nc1c(C(=O)Nc2ccc(F)c(C(F)(F)F)c2)sc2cc(C(F)(F)F)ccc12 (centres unmarked) [Example 136, N-(4-fluoro-3-(trifluoromethyl)phenyl)-3-(5-(1-(3-hydroxy-3-methylbutanoyl)pyrrolidin-3-yl)-2-methoxy-benzamido)-6-(trifluoromethyl) benzo[b] thiophene-2-carboxamide]
2710 | COc1ccc(C2CCCN(CCS(C)(=O)=O)CC2)cc1C(=O)Nc1c(C(=O)Nc2ccc(F)c(C(F)(F)F)c2)sc2cc(C(F)(F)F)ccc12 (centres unmarked) [Example 71, N-(4-fluoro-3-(trifluoromethyl)phenyl)-3-(2-methoxy-5-(1-(2-(methylsulfonyl)ethyl)azepan-4-yl)benzamido)-6-(trifluoromethyl) benzo[b] thiophene-2-carboxamide]
9.6 | COc1ccc(C2=NC(C(=O)N3CC(CO)C3)CO2)cc1C(=O)Nc1c(C(=O)Nc2ccc(F)c(C(F)(F)F)c2)sc2cc(C(F)(F)F)ccc12 (centres unmarked) [Example 282, N-[4-fluoro-3-(trifluoromethyl)phenyl]-3-(5-{4-[3-(hydroxymethyl)azetidine-1-carbonyl]-4,5-dihydro-1,3-oxazol-2-yl}-2-methoxy-benzamido)-6-(trifluoromethyl)-1-benzothiophene-2-carboxamide]
400 | COc1ccc(C2CC2C(=O)N2CC(OC)C2)cc1C(=O)Nc1c(C(=O)Nc2ccc(F)c(C(F)(F)F)c2)sc2cc(C(F)(F)F)ccc12 (centres unmarked) [Example 167, N-[4-fluoro-3-(trifluoromethyl)phenyl]-3-{2-methoxy-5-[2-(3-methoxyazetidine-1-carbonyl)cyclopropyl]benzamido}-6-(trifluoromethyl)-1-benzothiophene-2-carboxamide]

Compound | EC50 [nM]
COc1ccc(C2CC3CCC(C2)N3CCS(C)(=O)=O)cc1C(=O)Nc1c(C(=O)Nc2ccc(F)c(C(F)(F)F)c2)sc2cc(C(F)(F)F)ccc12 (centres unmarked) [Example 193, N-(4-fluoro-3-(trifluoromethyl)phenyl)-3-(2-methoxy-5-(8-(2-(methylsulfonyl)ethyl)-8-azabicyclo[3.2.1]octan-3-yl)benzamido)-6-(trifluoromethyl) benzo[b] thiophene-2-carboxamide] | 300
